Measured values reported in patent US5294713A, “2-piperazinone compounds and their use” (Takeda Chemical Industries, Ltd., priority 1991, dated 1994).
pIC50: −log10 of the molar value.

Assays:
[1] = test system: human platelet aggregation; assay: Inhibitory action on human platelet aggregation (ADP-stimulated PRP); assay type: cell-based; conditions: ADP final concentration 3 μM, in vitro, read-out: Inhibitory effect on platelet aggregation in vitro (IC50) man
Experimental: [II] Inhibitory action on human platelet aggregation
Human blood was collected in 3.8% sodium citrate (1 ml for 9 ml of blood) by venipuncture from healthy male volunteers. The blood was centrifuged at 1000 g for 3 to 5 seconds at room temperature to obtain platelet rich plasma (PRP). The PRP was further centrifuged at 1000 g for 10 minutes to obtain platelet poor plasma (PPP). The number of platelets was measured using an automatic blood cell counter (Sysmex E2500, Toaiyou-densi). The platelet density of PRP was adjusted to 300,000/μl with PPP. Platelet aggregation was measured using an 8-channel aggregometer (NBS HEMA TRACER VI Niko Bioscience Inc.). The PRP (250 μl) was preincubated at 37° C. for 2 minutes. and then incubated for 2 minutes. with 25 μl of physiological saline or various concentrations of test drugs followed by stimulation with ADP (final concentration: 3 μM). By comparing the maximum aggregation rates of the control and those of test drugs, the inhibitory rates were determined. The results are shown in [Table 1]-[Table 3].

[2] = test system: guinea pig platelet aggregation; assay: Inhibitory action on guinea pig platelet aggregation (ADP-stimulated PRP); assay type: cell-based; conditions: Cavia porcellus, ADP final concentration 1 μM, in vitro, read-out: Inhibitory effect on platelet aggregation in vitro (IC50) guinea pig
Experimental: TEST EXAMPLE 1 [I] Inhibitory action on guinea pig platelet aggregation
Blood was collected in 3.15% sodium citrate (1 ml for 9 ml of blood) by cardiac puncture from male guinea pig. The blood was centrifuged at 1000 g for 3 to 5 seconds at room temperature to obtain platelet rich plasma (PRP). The PRP was further centrifuged at 1000 g for 10 minutes to obtain platelet poor plasma (PPP). The number of platelets was measured using an automatic blood cell counter (Sysmex E2500, Toaiyou-densi). The platelet density of PRP was adjusted to 400,000/μl with PPP. Platelet aggregation was measured using an 8-channel aggregometer (NBS HEMA TRACER VI Niko Bioscience Inc.). The PRP (250 μl ) was preincubated at 37° C. for 2 minutes. and then incubated for 2 minutes. with 25 μl of physiological saline or various concentrations of test drugs followed by stimulation with ADP (final concentration: 1 μM). By comparing the maximum aggregation rates of the control and those of test drugs, the inhibitory rates were determined. The results are shown in [Table 1]-[Table 3].

GPIIb/IIIa = target: T1, GPIIb/IIIa (Homo sapiens, UniProt P05106+P08514); assay: Inhibition of fibrinogen binding to GPIIb/IIIa; conditions: purified GPIIb/IIIa from HEL cells, biotinylated human fibrinogen 1 nM
T1 construct: Purification of GPIIb/IIIa from HEL Cells; endogenous in cells; host or cells: HEL cells (HEL 92.1.7; ATCC TIB180), human erythroleukemia; GPIIb/IIIa solubilized in Triton X-100, purified and adsorbed on microtiter plates
Experimental: (1) Cultibation of Cells Derived from Human Erythroleukemia (Hereinafter Referred to as HEL Cells)
HEL cells (HEL 92. 1. 7; ATCC No. TIB180) were purchased from ATCC (Rockville, Md., U.S.A.). The cells were grown in RPMI medium containing 40 mM N-2-hydroxyethylpiperazin-N'-2-ethanesulfonic acid (hereinafter referred to as HEPES) (pH 7.0), 100 μg/ml of Kanamycin and 10% FCS (GIBCO Laboratories, Grand Island, N.Y., U.S.A.). Cultivation was conducted at 37° C in the presence of 5% CO2.
(2) Purification of GPIIb/IIIa from HEL Cells
Purification of GPIIb/IIIa was performed using the following modification of the method of L. A. Fitzgerald et al. [J. Biol. Chem., 262, 3936 (1987)]. The purification was conducted at room temperature unless specifically mentioned. From 7 L of the culture broth on 7th day of the cultibation (floating cells), the cells were collected by centrifugation (1,000×g, 10 minutes, 4° C.), which were washed with 20 mM Tris-HCl(pH 7.5) containing 1 mM EDTA and 150 mM NaCl. The cells were suspended in 80 ml of a solubilized buffer [20 mM Tris-HCl, 150 mM NaCl, 1% Triton X-100, 1 mM MgCl2, 1 mM CaCl2, 0.1 mM (p-amidinophenyl)methanesulfonyl fluoride (hereinafter referred to as APMSF), 10 nM leupeptin, 0.02% NaN3, pH 7.4)].
The cell suspension was gently mixed for 30 minutes at 4° C. to solubilize GPIIb/IIIa. The suspension was subjected to centrigugation (100,000×g, one hour) at 4° C. to remove cell debris to obtain a cell-extraction solution (60 ml). […] The fraction which passed through the column was charged on the ConA-Sepharose column (Pharmacia LKB, .phi. 1.0×15 cm, 20 ml/hr) to allow GPIIb/IIIa to be adsorbed thereon, then GPIIb/IIIa was eluted with column buffer solution containing 0.5 M methyl α-D-mannopyranoside. The eluate thus obtained was allowed to pass through the DEAE-Toyopearl 650 M column (Tosoh, .phi. 1.6×10.5 cm, 20 ml/hr) equilibrated with the same column buffer to remove contaminating proteins.
(3) Biotinylation of Human Fibrinogen
Biotinylation of human fibrinogen was performed by the following procedure [I. F. Charo et al., J. Biol. Chem., 266, 1415 (1991)]. Human fibrinogen (Kabi Vitrum AB, Stockholm, Sweden) was dissolved in PBS so as to make its concentration 5 mg/ml. The solution was dialyzed overnight at 4° C. against 1 L of 0.1 M NaHCO3 -0.1 M NaCl (pH 8.2). Insolubles were then removed by centrifugation (100,000×g, 30 minutes), and the solution was diluted with the same buffer to the protein concentration of 1 mg/ml. To thus-diluted solution was added powdery sulfo-N-hydroxysuccinimidobiotin (Pierce Chemical Co., Rockford, Ill., U.S.A.) so as to make its final concentration 0.2 mg/ml and gently mixed to perform biotinylate fibrinogen. The resultant was subjected to dialysis against 50 mM Tris-HCl (pH 7.4) - 100 mM NaCl-0.05% NaN3. The dialysate was distributed and stored at 4° C.
(4) Inhibition Assay for Fibrinogen Binding to GPIIb/IIIa
This experiment was performed using a modification of the method described in the above-mentioned I. F. Charo et al. report. The purified GPIIb/IIIa was diluted with the buffer A (20 mM Tris-HCl, 150 mM NaCl, 1 mM CaCl2, 0.02% NaN3, pH 7.4) to a concentration of 1 μg/ml. The diluted solution was added to 96-well microtiter plates (MaxiSorp; Nunc, Denmark) at 100 μl per well, which were left standing at 4° C. overnight to allow GPIIb/IIIa to be adsorbed on the microplates. The plate was aspirated, and then 150 μl of the buffer B (35 mg/ml BSA, 50 mM Tris-HCl, 100 mM NaCl, 2 mM CaCl2, 0.02%, NaN3, pH 7.4) was added to the plate, and blocking was performed at 30° C. for 2 hours. The plate was washed twice with 250 μl each of the buffer C (1 mg/ml BSA, 50mM Tris-HCl, 100 mM NaCl, 2 mM CaCl2, pH 7.4).

T1 sequence (P08514 32-887 limits assumed): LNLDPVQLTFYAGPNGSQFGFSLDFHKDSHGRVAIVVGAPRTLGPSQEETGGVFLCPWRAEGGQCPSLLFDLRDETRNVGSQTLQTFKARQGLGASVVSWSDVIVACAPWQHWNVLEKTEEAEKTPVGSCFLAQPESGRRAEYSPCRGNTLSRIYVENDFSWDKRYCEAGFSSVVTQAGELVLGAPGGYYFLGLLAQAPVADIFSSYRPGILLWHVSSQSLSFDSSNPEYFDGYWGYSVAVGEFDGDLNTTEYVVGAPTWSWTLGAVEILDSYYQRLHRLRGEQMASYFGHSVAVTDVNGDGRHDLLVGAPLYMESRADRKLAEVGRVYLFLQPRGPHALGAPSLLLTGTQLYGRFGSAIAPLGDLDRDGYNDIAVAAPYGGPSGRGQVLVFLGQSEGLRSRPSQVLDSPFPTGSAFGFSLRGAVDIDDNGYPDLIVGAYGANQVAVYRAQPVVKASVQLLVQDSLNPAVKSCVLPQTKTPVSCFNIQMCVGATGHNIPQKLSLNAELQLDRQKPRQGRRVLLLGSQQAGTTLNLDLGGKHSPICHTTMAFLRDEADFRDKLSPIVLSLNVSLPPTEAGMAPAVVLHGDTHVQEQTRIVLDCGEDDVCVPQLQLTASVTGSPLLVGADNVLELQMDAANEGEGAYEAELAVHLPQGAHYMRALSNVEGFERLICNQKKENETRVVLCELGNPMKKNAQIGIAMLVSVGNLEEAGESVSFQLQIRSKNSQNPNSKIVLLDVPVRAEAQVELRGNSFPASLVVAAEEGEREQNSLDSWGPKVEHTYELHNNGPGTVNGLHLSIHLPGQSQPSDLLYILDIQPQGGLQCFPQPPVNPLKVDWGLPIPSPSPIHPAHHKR
T1 sequence (P08514 891-1039 limits assumed): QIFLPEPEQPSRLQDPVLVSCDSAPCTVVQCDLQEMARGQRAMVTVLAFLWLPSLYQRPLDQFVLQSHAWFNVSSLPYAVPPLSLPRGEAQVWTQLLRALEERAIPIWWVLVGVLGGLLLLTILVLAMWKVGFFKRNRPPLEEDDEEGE
T1 sequence (P05106 27-788): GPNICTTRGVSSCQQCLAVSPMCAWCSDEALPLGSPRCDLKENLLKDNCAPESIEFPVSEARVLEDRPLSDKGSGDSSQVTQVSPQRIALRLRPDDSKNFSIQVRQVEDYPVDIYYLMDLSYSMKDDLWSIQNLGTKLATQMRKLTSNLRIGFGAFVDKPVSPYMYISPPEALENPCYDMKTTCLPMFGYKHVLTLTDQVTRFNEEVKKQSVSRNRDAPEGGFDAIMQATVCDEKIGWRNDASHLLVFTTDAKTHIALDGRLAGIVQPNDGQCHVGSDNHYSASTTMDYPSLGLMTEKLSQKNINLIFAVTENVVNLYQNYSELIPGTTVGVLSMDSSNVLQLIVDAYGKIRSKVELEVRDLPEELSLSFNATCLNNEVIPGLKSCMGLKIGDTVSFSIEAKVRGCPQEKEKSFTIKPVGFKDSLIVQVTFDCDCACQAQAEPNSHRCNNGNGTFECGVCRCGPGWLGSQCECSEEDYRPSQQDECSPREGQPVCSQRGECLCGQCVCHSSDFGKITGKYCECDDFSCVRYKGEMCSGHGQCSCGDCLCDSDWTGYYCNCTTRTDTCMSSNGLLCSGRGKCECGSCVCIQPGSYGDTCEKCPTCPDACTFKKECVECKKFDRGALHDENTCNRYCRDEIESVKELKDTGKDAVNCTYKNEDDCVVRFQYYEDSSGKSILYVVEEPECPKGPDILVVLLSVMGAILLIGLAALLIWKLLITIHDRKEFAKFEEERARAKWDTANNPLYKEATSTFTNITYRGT

Row | Compound | pIC50 [1] | pIC50 [2] | pIC50 (GPIIb/IIIa)
1 | N=C(N)NC[C@H]1CC[C@H](C(=O)NCC(=O)N2CCN(CC(=O)O)C(=O)[C@@H]2CC(=O)O)CC1 [compound 5] | 5.96 | 5.42 | 7.70
2 | N=C(N)NC[C@H]1CC[C@H](C(=O)N[C@@H](Cc2ccccc2)C(=O)N2CCN(CC(=O)O)C(=O)C2)CC1 [compound 37] | 6.28 | 5.15 | 8.10
3 | NCCc1ccc(C(=O)NCC(=O)N2CCN(CC(=O)O)C(=O)[C@@H]2CCC(N)=O)cc1 [compound 84] | 6.92 | 6.96 | 9.00
4 | N=C(N)c1ccc(C(=O)NCC(=O)N2CCN(CC(=O)O)C(=O)[C@@H]2CC(=O)O)cc1 [compound 39] | 6.96 | 6.78 | 9.00
5 | CN(C)CCc1ccc(C(=O)NCC(=O)N2CCN(CC(=O)O)C(=O)[C@@H]2CCC(=O)O)cc1 [compound 77] | 5.33 | 5.60 | 7.35
6 | COC(=O)CC[C@H]1C(=O)N(CC(=O)O)CCN1C(=O)CNC(=O)c1ccc(CCN)cc1 [compound 80] | 6.96 | 6.92 | 9.05
7 | COC(=O)CN1CCN(C(=O)CNC(=O)c2ccc(C(=N)N)cc2)[C@@H](CC(=O)O)C1=O [compound 57] | 5.59 | 5.76 | 7.70
8 | N=C(N)c1ccc(C(=O)NCC(=O)N2CCN(CC(=O)O)C(=O)[C@@H]2CCC(=O)O)cc1 [compound 66] | 7.28 | 7.18 | 9.70
9 | CC(C)(C)C(=O)OCOC(=O)CN1CCN(C(=O)CNC(=O)c2ccc(C(=N)N)cc2)[C@@H](Cc2ccccc2)C1=O [compound 63] | 6.14 | 6.34 | 8.05
10 | N=C(N)NCc1ccc(C(=O)NCC(=O)N2CCN(CC(=O)O)C(=O)[C@@H]2CC(=O)O)cc1 [compound 8] | 6.18 | 5.89 | 7.74
